molecular target: T1, OX2R (Homo sapiens, UniProt O43614); test: radioligand binding assay, OX2 receptor; settings: membranes prepared from CHO cells expressing the OX2 receptor
T1 construct: expressed in transfected cells; host or cells: CHO cells (membranes)
T1 sequence (O43614 1-444): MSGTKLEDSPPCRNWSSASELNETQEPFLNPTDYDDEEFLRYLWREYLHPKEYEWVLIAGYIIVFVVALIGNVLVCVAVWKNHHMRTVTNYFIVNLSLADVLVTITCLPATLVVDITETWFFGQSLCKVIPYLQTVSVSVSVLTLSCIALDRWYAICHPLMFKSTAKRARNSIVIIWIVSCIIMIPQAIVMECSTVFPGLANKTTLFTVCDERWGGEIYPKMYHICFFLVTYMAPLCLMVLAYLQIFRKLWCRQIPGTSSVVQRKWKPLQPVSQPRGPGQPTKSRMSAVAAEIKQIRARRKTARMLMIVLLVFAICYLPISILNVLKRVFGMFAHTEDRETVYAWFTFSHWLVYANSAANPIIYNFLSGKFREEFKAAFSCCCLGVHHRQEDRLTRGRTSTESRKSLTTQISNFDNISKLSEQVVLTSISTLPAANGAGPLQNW
Protocol: In a typical experiment the OX1 and OX2 receptor antagonistic activity of the compounds of the present invention was determined in accordance with the following experimental method. For intracellular calcium measurements, Chinese hamster ovary (CHO) cells expressing the rat orexin-1 receptor or the human orexin-2 receptor, are grown in Iscove's modified DMEM containing 2 mM L-glutamine, […], 1% hypoxanthine-thymidine supplement, 100 U/ml penicillin, 100 ug/ml streptomycin and 10% heat-inactivated fetal calf serum (FCS). The cells are seeded at 20,000 cells/well into Becton-Dickinson black 384-well clear bottom sterile plates coated with poly-D-lysine. All reagents were from GIBCO-Invitrogen Corp. The seeded plates are incubated overnight at 37° C. and 5% CO2. Ala-6,12 human orexin-A as the agonist is prepared as a 1 mM stock solution in 1% bovine serum albumin (BSA) and diluted in assay buffer (HBSS containing 20 mM HEPES, 0.1% BSA and 2.5 mM probenecid, pH7.4) for use in the assay at a final concentration of 70 pM. Test compounds are prepared as 10 mM stock solution in DMSO, then diluted in 384-well plates, first in DMSO, then assay buffer. On the day of the assay, cells are washed 3 times with 100 ul assay buffer and then incubated for 60 min (37° C., 5% CO2) in 60 ul assay buffer containing 1 uM Fluo-4AM ester, 0.02% pluronic acid, and 1% BSA. The dye loading solution is then aspirated and cells are washed 3 times with 100 ul assay buffer. 30 ul of that same buffer is left in each well. Within the Fluorescent Imaging Plate Reader (FLIPR, Molecular Devices), test compounds are added to the plate in a volume of 25 ul, incubated for 5 min and finally 25 ul of agonist is added. Fluorescence is measured for each well at 1 second intervals for 5 minutes and the height of each fluorescence peak is compared to the height of the fluorescence peak induced by 70 pM Ala-6,12 orexin-A with buffer in place of antagonist. For each antagonist, IC50 value (the concentration of compound needed to inhibit 50% of the agonist response) is determined. Alternatively, compound potency can be assessed by a radioligand binding assay (described in Bergman et. al. Bioorg. Med. Chem. Lett. 2008, 18, 1425-1430) in which the inhibition constant (Ki) is determined in membranes prepared from CHO cells expressing either the OX1 or OX2 receptor. The intrinsic orexin receptor antagonist activity of a compound which may be used in the present invention may be determined by these assays.

First: 5-(3,5-chloromethylphenyl)-N-[(1,4-dimethyl-1,2,3,4-tetrahydroquinoxalin-6-yl)methyl]-2-(1-methyl-1H-pyrazol-4-yl)nicotinamide [2-14]
Second: COc1cc(CNC(=O)c2cc(-c3cc(C)cc(C)c3)cnc2-c2cnn(C)c2)cnc1OC [1-13, N-[(5,6-dimethoxypyridin-3-yl)methyl]-5-(3,5-dimethylphenyl)-2-(1-methyl-1H-pyrazol-4-yl)nicotinamide]
The Ki of the first is 32-fold lower: 0.15 nM for the first, 4.8 nM for the second.

First: Cc1[nH]c2cc(CNC(=O)c3cc(-c4cc(Cl)cc(Cl)c4)cnc3-c3cnn(C)c3)ccc2c1C [1-14, 5-(3,5-dichlorophenyl)-N-[(2,3-dimethyl-1H-indol-6-yl)methyl]-2-(1-methyl-1H-pyrazol-4-yl)nicotinamide]
Second: COc1ccc(CNC(=O)c2cc(-c3cncc(C)c3)cnc2-c2cccc(F)c2)nc1OC [3-7, N-[(5,6-dimethoxypyridin-2-yl)methyl]-6-(3-fluorophenyl)-5′-methyl-3,3′-bipyridine-5-carboxamide]
The Ki of the first is 4.6-fold lower: 0.07 nM for the first, 0.32 nM for the second.

`COc1ccc(CNC(=O)c2cc(-c3cncc(Cl)c3)cnc2-c2ccccc2)nc1OC` [3-15, 5′-chloro-N-[(5,6-dimethoxypyridin-2-yl)methyl]-6-phenyl-3,3′-bipyridine-5-carboxamide] and `COc1ccc(CNC(=O)c2cc(-c3cc(C)cc(Cl)c3)cnc2N2CCCC2)cc1OC` [4-5, 5-(3-chloro-5-methylphenyl)-N-(3,4-dimethoxybenzyl)-2-pyrrolidin-1-ylnicotinamide] are the same in Ki: 0.45 nM for the first, 0.45 nM for the second.

`COc1ccc(CNC(=O)c2cc(-c3cncc(C)c3)cnc2N2CCOCC2)nc1OC` [4-13, N-[(5,6-dimethoxypyridin-2-yl)methyl]-5′-methyl-6-morpholin-4-yl-3,3′-bipyridine-5-carboxamide] and `COc1ccc(CNC(=O)c2cc(-c3cncc(C)c3)cnc2-n2ccc(C)n2)cc1Cl` [5-11, N-(3-chloro-4-methoxybenzyl)-5′-methyl-6-(3-methyl-1H-pyrazol-1-yl)-3,3′-bipyridine-5-carboxamide] are within 1.5-fold of each other in Ki: 1.1 nM for the first, 0.95 nM for the second.

`COc1ccc(CNC(=O)c2cc(-c3cncc(C)c3)cnc2C2CCCC2)cc1OC` [6-5, 6-cyclopentyl-N-(3,4-dimethoxybenzyl)-5-methyl-3,3′-bipyridine-5-carboxamide] showed a Ki of 2.3 nM.

From patent US8003797B2, “Pyridine carboxamide orexin receptor antagonists” (Merck Sharp & Dohme Corp., priority 2007, dated 2011)
